The source made the active and inactive calls. The rule behind the calls is not given here.
Columns and labels:
[1] = biological target: T1, Protein cereblon/Non-receptor tyrosine-protein kinase TYK2 (Homo sapiens, UniProt P29597+Q96SW2); assay: PROTAC activity at CRBN/TYK2 in human Jurkat cells assessed as induction of degradation of TYK2 at 10 nM measured after 10 hrs by Western blot analysis relative to control; format: cell-based
Target sequence in this assay (P29597 whole entry, looked up): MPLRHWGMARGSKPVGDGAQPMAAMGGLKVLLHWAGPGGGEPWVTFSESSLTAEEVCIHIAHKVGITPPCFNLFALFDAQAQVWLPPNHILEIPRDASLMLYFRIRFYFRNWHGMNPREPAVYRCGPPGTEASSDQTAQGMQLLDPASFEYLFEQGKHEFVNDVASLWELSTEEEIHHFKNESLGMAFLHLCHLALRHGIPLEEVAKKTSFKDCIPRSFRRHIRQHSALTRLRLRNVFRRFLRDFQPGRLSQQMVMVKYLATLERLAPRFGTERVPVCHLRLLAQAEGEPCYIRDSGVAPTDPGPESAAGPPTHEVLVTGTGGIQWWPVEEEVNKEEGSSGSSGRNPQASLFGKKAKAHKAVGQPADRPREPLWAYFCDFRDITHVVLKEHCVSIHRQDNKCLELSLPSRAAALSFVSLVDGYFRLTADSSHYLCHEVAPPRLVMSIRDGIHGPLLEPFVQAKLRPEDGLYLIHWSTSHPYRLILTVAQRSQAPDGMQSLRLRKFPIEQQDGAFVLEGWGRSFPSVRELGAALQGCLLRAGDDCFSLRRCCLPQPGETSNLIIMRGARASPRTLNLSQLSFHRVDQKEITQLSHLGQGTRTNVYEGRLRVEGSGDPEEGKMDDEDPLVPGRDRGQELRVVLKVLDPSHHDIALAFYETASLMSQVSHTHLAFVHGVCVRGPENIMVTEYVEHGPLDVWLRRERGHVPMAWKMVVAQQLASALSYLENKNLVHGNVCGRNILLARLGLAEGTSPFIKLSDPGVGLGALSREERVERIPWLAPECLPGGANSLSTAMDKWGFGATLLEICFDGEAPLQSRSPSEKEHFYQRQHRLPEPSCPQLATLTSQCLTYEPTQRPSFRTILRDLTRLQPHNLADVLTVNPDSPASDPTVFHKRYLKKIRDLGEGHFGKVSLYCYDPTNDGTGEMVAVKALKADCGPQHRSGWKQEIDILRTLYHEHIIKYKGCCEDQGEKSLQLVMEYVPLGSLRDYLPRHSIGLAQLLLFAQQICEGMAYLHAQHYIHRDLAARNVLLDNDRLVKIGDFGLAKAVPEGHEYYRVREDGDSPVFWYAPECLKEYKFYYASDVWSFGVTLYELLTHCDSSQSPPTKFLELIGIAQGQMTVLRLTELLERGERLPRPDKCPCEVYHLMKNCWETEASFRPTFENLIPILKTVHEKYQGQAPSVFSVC
Target sequence in this assay (Q96SW2 whole entry, looked up): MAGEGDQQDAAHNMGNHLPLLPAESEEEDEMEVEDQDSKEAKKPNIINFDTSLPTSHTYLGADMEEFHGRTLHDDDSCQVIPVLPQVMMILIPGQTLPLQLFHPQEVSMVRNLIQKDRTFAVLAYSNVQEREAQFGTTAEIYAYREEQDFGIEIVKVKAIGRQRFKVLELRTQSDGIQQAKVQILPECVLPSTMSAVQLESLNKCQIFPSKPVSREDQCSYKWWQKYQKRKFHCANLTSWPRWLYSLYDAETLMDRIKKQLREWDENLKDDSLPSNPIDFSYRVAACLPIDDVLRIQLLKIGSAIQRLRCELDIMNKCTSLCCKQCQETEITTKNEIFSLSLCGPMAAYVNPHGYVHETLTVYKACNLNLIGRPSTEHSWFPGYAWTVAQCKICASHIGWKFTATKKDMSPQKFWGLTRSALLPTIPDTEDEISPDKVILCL

[2] = biological target: T1, Protein cereblon/Non-receptor tyrosine-protein kinase TYK2; assay: PROTAC activity at CRBN/TYK2 in human Jurkat cells assessed as induction of degradation of TYK2 at 1 nM measured after 10 hrs by Western blot analysis relative to control; format: cell-based
Target sequence in this assay (P29597 whole entry, looked up): as the sequence (P29597 whole entry, looked up) above
Target sequence in this assay (Q96SW2 whole entry, looked up): as the sequence (Q96SW2 whole entry, looked up) above

[3] = biological target: T1, Protein cereblon/Non-receptor tyrosine-protein kinase TYK2; assay: PROTAC activity at CRBN/TYK2 in human Jurkat cells assessed as induction of degradation of TYK2 measured after 10 hrs by Western blot analysis; format: cell-based
Target sequence in this assay (P29597 whole entry): as the sequence (P29597 whole entry, looked up) above
Target sequence in this assay (Q96SW2 whole entry): as the sequence (Q96SW2 whole entry, looked up) above

[4] = biological target: T1, Protein cereblon/Non-receptor tyrosine-protein kinase TYK2; assay: PROTAC activity at CRBN/TYK2 in human HaCaT cells assessed as induction of degradation of TYK2 measured after 10 hrs by Western blot analysis; format: cell-based; conditions: dose 1-100 nM
Target sequence in this assay (P29597 whole entry, looked up): as the sequence (P29597 whole entry, looked up) above
Target sequence in this assay (Q96SW2 whole entry, looked up): as the sequence (Q96SW2 whole entry, looked up) above

[5] = Metabolic stability in mouse liver microsomes assessed as intrinsic clearance measured up to 120 mins by LC-MS/MS analysis; format: ADME, Microsome; conditions: read-out: CLH
Jurkat [6] = assay: Downregulation of JAK3 protein level in human Jurkat cells at 1 to 100 nM measured after 10 hrs by Western blot analysis; format: functional, cell-based; conditions: dose 1-100 nM
Jurkat [7] = assay: Downregulation of TYK2 protein level in human Jurkat cells at 30 nM measured after 4 hrs by DIA-Based Proteomic analysis; format: functional, cell-based
Jurkat [8] = assay: Effect on JAK3 protein level in human Jurkat cells at 30 nM measured after 4 hrs by DIA-Based Proteomic analysis; format: functional, cell-based
Jurkat [9] = assay: Downregulation of Aiolos level in human Jurkat cells at 30 nM measured after 4 hrs by DIA-Based Proteomic analysis; format: functional, cell-based
[10] = biological target: Non-receptor tyrosine-protein kinase TYK2 (Homo sapiens, UniProt P29597); assay: Binding affinity to TYK2 JH1 domain (unknown origin) by ADP-glo kinase assay
[11] = biological target: T2, Tyrosine-protein kinase JAK1 (Homo sapiens, UniProt P23458); assay: Binding affinity to JAK1 (unknown origin) by ADP-glo kinase assay
[12] = biological target: Tyrosine-protein kinase JAK2 (Homo sapiens, UniProt O60674); assay: Binding affinity to JAK2 (unknown origin) by ADP-glo kinase assay
[13] = biological target: T2, Tyrosine-protein kinase JAK1; assay: Displacement of fluorophore-labeled probe from JAK1 JH2 domain (unknown origin) by HTRF assay
[14] = Selectivity ratio of IC50 for displacement of fluorophore-labeled probe from JAK2 JH2 domain (unknown origin) to IC50 for displacement of fluorophore-labeled probe from TYK2 JH2 domain (unknown origin)
[15] = biological target: T1, Protein cereblon/Non-receptor tyrosine-protein kinase TYK2; assay: PROTAC activity at CRBN/TYK2 in human Jurkat cells assessed as induction of degradation of TYK2 at 10 nM preincubated for 24 hrs followed by compound washout and followed by incubation in compound free medium by Western blot analysis; format: cell-based
Target sequence in this assay (P29597 whole entry, looked up): as the sequence (P29597 whole entry, looked up) above
Target sequence in this assay (Q96SW2 whole entry, looked up): as the sequence (Q96SW2 whole entry, looked up) above

[16] = biological target: T1, Protein cereblon/Non-receptor tyrosine-protein kinase TYK2; assay: PROTAC activity at CRBN/TYK2 in human Jurkat cells assessed as induction of degradation of TYK2 at 10 nM preincubated with MG132 for 2 hrs followed by compound addition and measured after 10 hrs by Western blot analysis; format: cell-based
Target sequence in this assay (P29597 whole entry, looked up): as the sequence (P29597 whole entry, looked up) above
Target sequence in this assay (Q96SW2 whole entry, looked up): as the sequence (Q96SW2 whole entry, looked up) above

[17] = biological target: T1, Protein cereblon/Non-receptor tyrosine-protein kinase TYK2; assay: PROTAC activity at CRBN/TYK2 in human Jurkat cells assessed as induction of degradation of TYK2 at 10 nM preincubated with bortezomib for 2 hrs followed by compound addition and measured after 10 hrs by Western blot analysis; format: cell-based
Target sequence in this assay (P29597 whole entry, looked up): as the sequence (P29597 whole entry, looked up) above
Target sequence in this assay (Q96SW2 whole entry, looked up): as the sequence (Q96SW2 whole entry, looked up) above

[18] = biological target: T1, Protein cereblon/Non-receptor tyrosine-protein kinase TYK2; assay: PROTAC activity at CRBN/TYK2 in human Jurkat cells assessed as induction of degradation of TYK2 at 10 nM preincubated with MLN4924 for 2 hrs followed by compound addition and measured after 10 hrs by Western blot analysis; format: cell-based
[19] = Inhibition of IFN-alpha activated TYK2 dependent STAT3 phosphorylation in human Jurkat cells incubated for 10 hrs by Western blot analysis; format: cell-based
[20] = Half life in male ICR mouse at 5 mg/kg, ip measured up to 24 hrs by LC-MS/MS analysis; format: ADME, organism-based; conditions: in vivo
[21] = Tmax in male ICR mouse at 5 mg/kg, ip measured up to 24 hrs by LC-MS/MS analysis; format: ADME, organism-based; conditions: in vivo
[22] = Cmax in male ICR mouse at 5 mg/kg, ip measured up to 24 hrs by LC-MS/MS analysis; format: ADME, organism-based; conditions: in vivo
[23] = AUC (0 to t) in male ICR mouse at 5 mg/kg, ip measured up to 24 hrs by LC-MS/MS analysis; format: ADME, organism-based; conditions: in vivo
[24] = AUC (0 to infinity) in male ICR mouse at 5 mg/kg, ip measured up to 24 hrs by LC-MS/MS analysis; format: ADME, organism-based; conditions: in vivo
[25] = MRT (0 to t) in male ICR mouse at 5 mg/kg, ip measured up to 24 hrs by LC-MS/MS analysis; format: ADME, organism-based; conditions: in vivo
[26] = MRT (0 to infinity) in male ICR mouse at 5 mg/kg, ip measured up to 24 hrs by LC-MS/MS analysis; format: ADME, organism-based; conditions: in vivo
Mus musculus [27] = assay: Anti-inflammatory activity in imiquimod-induced female BALB/c mouse psoriasis model assessed as reduction in psoriasis area severity index at 5 mg/kg, ip administered daily topically for 6 days; format: functional, organism-based; conditions: time 6.0 day
Mus musculus [28] = assay: Anti-inflammatory activity in imiquimod-induced female BALB/c mouse psoriasis model assessed as reduction in hyperkeratosis at 5 mg/kg, ip administered daily topically for 6 days by H and E staining based analysis; format: functional, organism-based; conditions: time 6.0 day
Mus musculus [29] = assay: Anti-inflammatory activity in imiquimod-induced female BALB/c mouse psoriasis model assessed as reduction in inflammatory infiltration at 5 mg/kg, ip administered daily topically for 6 days by H and E staining based analysis; format: functional, organism-based; conditions: time 6.0 day
Mus musculus [30] = assay: Anti-inflammatory activity in imiquimod-induced female BALB/c mouse psoriasis model assessed as reduction in concomitant splenomegaly at 5 mg/kg, ip administered daily topically for 6 days; format: functional, organism-based; conditions: time 6.0 day
Mus musculus [31] = organism: Mus musculus; assay: Anti-inflammatory activity in imiquimod-induced female BALB/c mouse psoriasis model assessed as reduction in IL-17 expression in skin by ELISA method; format: functional, organism-based
Mus musculus [32] = organism: Mus musculus; assay: Anti-inflammatory activity in imiquimod-induced female BALB/c mouse psoriasis model assessed as reduction in IL-23 expression in skin by ELISA method; format: functional, organism-based
Mus musculus [33] = organism: Mus musculus; assay: Anti-inflammatory activity in imiquimod-induced female BALB/c mouse psoriasis model assessed as reduction in INF-alpha expression in skin by ELISA method; format: functional, organism-based
Mus musculus [34] = assay: Anti-inflammatory activity in imiquimod-induced female BALB/c mouse psoriasis model assessed as alleviation of psoriasis pathology at 15 mg/kg, ip administered daily topically for 6 days; format: functional, organism-based; conditions: time 6.0 day
Mus musculus [35] = assay: Anti-inflammatory activity in imiquimod-induced female BALB/c mouse psoriasis model assessed as reduction in IL-17 expression in skin at 15 mg/kg, ip administered daily topically for 6 days by ELISA method; format: functional, organism-based; conditions: time 6.0 day
Mus musculus [36] = assay: Anti-inflammatory activity in imiquimod-induced female BALB/c mouse psoriasis model assessed as reduction in IL-23 expression in skin at 15 mg/kg, ip administered daily topically for 6 days by ELISA method; format: functional, organism-based; conditions: time 6.0 day

T2 sequence (P23458 whole entry): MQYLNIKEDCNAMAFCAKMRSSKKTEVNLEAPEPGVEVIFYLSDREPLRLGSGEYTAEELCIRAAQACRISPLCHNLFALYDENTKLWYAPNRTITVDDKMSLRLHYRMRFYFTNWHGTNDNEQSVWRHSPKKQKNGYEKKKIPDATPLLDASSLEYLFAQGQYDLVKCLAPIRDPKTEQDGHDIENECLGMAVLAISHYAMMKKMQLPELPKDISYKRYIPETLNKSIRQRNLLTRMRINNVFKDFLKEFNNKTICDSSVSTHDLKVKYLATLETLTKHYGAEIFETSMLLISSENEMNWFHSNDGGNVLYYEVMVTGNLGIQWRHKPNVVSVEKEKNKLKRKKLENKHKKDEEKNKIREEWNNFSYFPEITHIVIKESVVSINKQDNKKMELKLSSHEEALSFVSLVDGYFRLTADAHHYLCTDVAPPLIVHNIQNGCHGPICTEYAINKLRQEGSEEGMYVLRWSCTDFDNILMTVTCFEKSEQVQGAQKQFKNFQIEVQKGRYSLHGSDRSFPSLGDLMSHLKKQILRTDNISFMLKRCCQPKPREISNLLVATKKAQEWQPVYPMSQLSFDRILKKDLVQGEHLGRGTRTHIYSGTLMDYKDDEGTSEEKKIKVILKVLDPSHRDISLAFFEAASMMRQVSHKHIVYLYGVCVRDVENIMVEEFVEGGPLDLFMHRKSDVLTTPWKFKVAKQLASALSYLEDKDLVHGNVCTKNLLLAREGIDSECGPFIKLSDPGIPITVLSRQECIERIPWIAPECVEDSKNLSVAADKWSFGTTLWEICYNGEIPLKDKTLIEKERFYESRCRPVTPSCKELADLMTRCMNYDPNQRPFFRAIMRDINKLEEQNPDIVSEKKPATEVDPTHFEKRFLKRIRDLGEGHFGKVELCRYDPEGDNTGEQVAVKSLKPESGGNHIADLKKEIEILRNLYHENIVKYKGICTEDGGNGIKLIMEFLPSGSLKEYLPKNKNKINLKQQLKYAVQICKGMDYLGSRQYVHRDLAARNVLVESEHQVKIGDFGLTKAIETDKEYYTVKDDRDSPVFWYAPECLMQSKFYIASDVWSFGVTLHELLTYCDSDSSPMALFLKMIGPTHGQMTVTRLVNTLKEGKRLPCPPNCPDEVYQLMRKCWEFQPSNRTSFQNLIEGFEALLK
Chain of Tyrosine-protein kinase JAK2 (O60674 whole entry, the tested form may be a part): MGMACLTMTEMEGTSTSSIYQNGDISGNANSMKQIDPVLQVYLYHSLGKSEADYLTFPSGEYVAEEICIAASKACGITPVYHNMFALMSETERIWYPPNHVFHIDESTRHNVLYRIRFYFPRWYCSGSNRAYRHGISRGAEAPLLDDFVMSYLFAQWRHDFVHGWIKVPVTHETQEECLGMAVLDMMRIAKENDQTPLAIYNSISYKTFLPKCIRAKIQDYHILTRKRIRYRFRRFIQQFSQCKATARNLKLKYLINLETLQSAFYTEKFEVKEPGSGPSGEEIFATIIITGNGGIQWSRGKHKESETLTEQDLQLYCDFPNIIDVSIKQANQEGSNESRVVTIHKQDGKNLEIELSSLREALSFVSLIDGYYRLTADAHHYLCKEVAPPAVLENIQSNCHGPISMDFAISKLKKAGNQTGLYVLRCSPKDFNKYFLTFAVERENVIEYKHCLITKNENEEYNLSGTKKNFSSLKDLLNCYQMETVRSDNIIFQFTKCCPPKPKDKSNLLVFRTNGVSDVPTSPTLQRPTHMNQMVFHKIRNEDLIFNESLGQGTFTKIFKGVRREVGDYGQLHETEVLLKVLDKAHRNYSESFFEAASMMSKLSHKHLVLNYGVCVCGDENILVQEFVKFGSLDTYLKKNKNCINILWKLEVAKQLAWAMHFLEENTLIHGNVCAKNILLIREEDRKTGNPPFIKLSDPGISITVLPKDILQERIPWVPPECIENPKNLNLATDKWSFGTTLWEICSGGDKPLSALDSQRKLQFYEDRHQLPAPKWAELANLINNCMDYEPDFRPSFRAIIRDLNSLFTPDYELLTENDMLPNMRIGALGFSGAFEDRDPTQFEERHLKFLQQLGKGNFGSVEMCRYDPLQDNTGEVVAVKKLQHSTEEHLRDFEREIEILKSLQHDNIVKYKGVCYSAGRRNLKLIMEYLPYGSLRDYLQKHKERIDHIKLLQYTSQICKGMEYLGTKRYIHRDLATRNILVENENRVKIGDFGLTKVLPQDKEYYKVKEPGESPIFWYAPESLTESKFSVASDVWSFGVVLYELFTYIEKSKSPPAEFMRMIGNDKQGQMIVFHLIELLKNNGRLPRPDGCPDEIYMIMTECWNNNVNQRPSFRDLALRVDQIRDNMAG
Chain of Non-receptor tyrosine-protein kinase TYK2 (P29597 whole entry, the tested form may be a part): as the sequence (P29597 whole entry, looked up) above

- Activity [1]: 96%
- Activity [2]: 63%
- DC50 [3]: 0.00042 µM
- Activity [4]: Dose-dependent-effect
- CLint scaled [5]: 54 mL/min/kg
- IC50 [10]: > 10 µM
- IC50 [11]: > 10 µM
- IC50 [12]: > 10 µM
- IC50 [13]: > 0.1 µM
- Ratio IC50 [14]: > 80
- Activity [15]: inactive
- Activity [16]: inactive
- Activity [17]: inactive
- Activity [18]: inactive
- IC50 [19]: 0.0067 µM
- half-life [20]: 2.7 h
- Tmax [21]: 0.4 h
- Cmax [22]: 1300 ng/mL
- AUC(0-t) at 24 h [23]: 4770 ng·h/mL
- AUC(0-inf) [24]: 4780 ng·h/mL
- MRT last at 24 h [25]: 4.1 h
- MRT inf [26]: 4.2 h
SMILES: CNC(=O)c1cnc(Nc2ccc(C(=O)NC3CCC(Nc4ccc5c(c4)C(=O)N(C4CCC(=O)NC4=O)C5=O)CC3)cn2)cc1Nc1cccc(-c2ncc(F)cn2)c1OC (stereo unspecified)
- Activity (Jurkat [6]): Active
- Activity (Jurkat [7]): Active
- Activity (Jurkat [8]): inactive
- Activity (Jurkat [9]): inactive
- Activity (Mus musculus [27]): Active
- Activity (Mus musculus [28]): Active
- Activity (Mus musculus [29]): Active
- Activity (Mus musculus [30]): Active
- Activity (Mus musculus [31]): Active
- Activity (Mus musculus [32]): Active
- Activity (Mus musculus [33]): Active
- Activity (Mus musculus [34]): Active
- Activity (Mus musculus [35]): Active
- Activity (Mus musculus [36]): Active

From ChEMBL document CHEMBL6109122 (J Med Chem, 2025)
